Patent US9206159B2, “Piperazine-piperidine compounds as hepatitis C virus inhibitors” (Theravance Biopharma R&D IP, LLC, priority 2012, dated 2015)

Legend:
[1] = system: HCV genotype 1a replicon cell line; test: HCV Genotype 1a Replicon Assay; type: cell-based, hepatitis C virus; settings: Huh7.5 cell background, NS3-specific protease activity in lysates, 48 or 72 hours; for EC50: Hepatitis C virus, read-out: Genotype 1a (pEC50 class) (converted)
Method in brief: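 Huh7.5-based subgenomic genotype 1a replicon cells, plated without G418, exposed to compound dose-responses (0.5% DMSO final) for 48 or 72 h at 37 °C. Lysate NS3/4a protease activity read with 15 μM FRET substrate, 20 min at 37 °C (Ex 340/Em 509 nm); EC50 from 4-parameter fit.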

[2] = system: HCV genotype 1b replicon cell line; test: HCV Genotype 1b Replicon Assay; type: cell-based, hepatitis C virus; settings: Huh7 cell background, Renilla luciferase readout, 48 hours
Source text: Assay 1: HCV Genotype 1b Replicon Assay
The HCV genotype 1b replicon cell line was obtained from Apath LLC (Brooklyn, N.Y.) (APC144; Huh7 cell background). This subgenomic replicon contains the N-terminus of the HCV core protein fused to the neomycin-resistance selectable marker. The EMCV IRES lies downstream and drives expression of humanized Renilla luciferase fused to the non-structural proteins NS3-NS5B. This cell line was used to determine compound potency using the luciferase activity readout as a measurement of compound inhibition of replicon levels.
Cells were grown at 37° C. in a 5% CO2 humidified incubator in DMEM (Invitrogen) with 10% FBS (HyClone), 1×NEAA (Invitrogen), 1× Pen-Strep (Invitrogen), and 500 μg/mL G418 (Invitrogen). On day 1 of the assay, cells were plated at 10,000 cells/well in white 96-well tissue culture plates (Costar) in 200 μL media lacking G418. Four hours later, once the cells have adhered, the media was removed and replaced with media (no G418) containing dose-responses of test compounds. Compounds were initially diluted in DMSO and then diluted another 200× in media to bring the final DMSO concentration down to 0.5%. The cells were incubated with test compounds for 48 hours. At the end of the incubation period, media and compound were removed from the plates and the luciferase activity was determined using Promega Renilla-Glo reagents.
To analyze the data, the luciferase activity was plotted vs. the compound concentration, and EC50 values were determined from a 4-parameter robust fit model with the GraphPad Prism software package (GraphPad Software, Inc., San Diego, Calif.). Results are expressed as the negative decadic logarithm of the EC50 value, pEC50.
Test compounds having a higher pEC50 value in this assay show greater inhibition of HCV genotype 1b replication.

Row | Compound | Genotype 1a (pEC50 class) [1] | Genotype 1b (pEC50 class) [2] | EC50 [1] [nM]
1 | COC(=O)N[C@H](C(=O)N1CCC[C@H]1c1nc(-c2ccc(-c3ccc(NC(=O)N4CCN(C5CCN(C(=O)OC(C)(C)C)CC5)CC4)cc3)cc2)c[nH]1)C(C)C [Example 1-1] | C (C represents pEC50 between and 9 and about 10, (EC50 between 1 nM and 0.1 nM)) | D (D represents pEC50>10 (EC50<0.1 nM)) | –
2 | COC(=O)N[C@H](C(=O)N1CCC[C@H]1c1nc(-c2ccc(-c3ccc(NC(=O)N4CCN(C5CCN(C(=O)C6CC6)CC5)CC4)cc3)cc2)c[nH]1)C(C)C [Example 1-8] | C (C represents pEC50 between and 9 and about 10, (EC50 between 1 nM and 0.1 nM)) | D (D represents pEC50>10 (EC50<0.1 nM)) | –
3 | COC(=O)N[C@H](C(=O)N1CCC[C@H]1c1nc(-c2ccc(-c3ccc(NC(=O)N4CCN(C5CCN(C(=O)[C@H]6CC6(C)C)CC5)CC4)cc3OC(F)(F)F)cc2)c[nH]1)C(C)C [Example 1-12] | C (C represents pEC50 between and 9 and about 10, (EC50 between 1 nM and 0.1 nM)) | D (D represents pEC50>10 (EC50<0.1 nM)) | –
4 | COC(=O)N[C@H](C(=O)N1CCC[C@H]1c1nc(-c2ccc(-c3ccc(NC(=O)N4CCN(C5CCN(C(=O)C6CC6)CC5)CC4)cc3OC(F)(F)F)cc2)c[nH]1)C(C)C [Example 1-13] | C (C represents pEC50 between and 9 and about 10, (EC50 between 1 nM and 0.1 nM)) | D (D represents pEC50>10 (EC50<0.1 nM)) | –
5 | COC(=O)N[C@H](C(=O)N1CCC[C@H]1c1nc(-c2ccc(-c3ccc(NC(=O)N4CCN(C5CCN(C(=O)OC(C)(C)C)CC5)CC4)cc3OC(F)(F)F)cc2)c[nH]1)C(C)C [Example 1-14] | C (C represents pEC50 between and 9 and about 10, (EC50 between 1 nM and 0.1 nM)) | D (D represents pEC50>10 (EC50<0.1 nM)) | –
6 | COC(=O)N[C@H](C(=O)N1CCC[C@H]1c1nc(-c2ccc(-c3ccc(NC(=O)N4CCN(C5CCN(C(=O)C(C)(C)CO)CC5)CC4)cc3OC(F)(F)F)cc2)c[nH]1)C(C)C [Example 1-17] | C (C represents pEC50 between and 9 and about 10, (EC50 between 1 nM and 0.1 nM)) | D (D represents pEC50>10 (EC50<0.1 nM)) | –
7 | COC(=O)N[C@H](C(=O)N1C[C@@H](C)C[C@H]1c1nc(-c2ccc(-c3cc(F)c(NC(=O)N4CCN(C5CCN(C(=O)C(C)(C)C)CC5)CC4)cc3OC(F)(F)F)cc2)c[nH]1)C(C)C [Example 2-5] | D (D represents pEC50>10 (EC50<0.1 nM)) | D (D represents pEC50>10 (EC50<0.1 nM)) | –
8 | COC(=O)N[C@H](C(=O)N1C[C@@H](C)C[C@H]1c1nc(-c2ccc(-c3ccc(NC(=O)N4CCN(C5CCN(C(=O)C(C)(C)C)CC5)CC4)cc3OC(F)(F)F)cc2)c[nH]1)C(C)C [Example 2-9] | D (D represents pEC50>10 (EC50<0.1 nM)) | D (D represents pEC50>10 (EC50<0.1 nM)) | –
9 | COC(=O)N[C@H](C(=O)N1C[C@@H](C)C[C@H]1c1nc(-c2ccc(-c3cc(F)c(NC(=O)N4CCN(C5CCN(C(=O)[C@H]6CC6(C)C)CC5)CC4)cc3OC(F)(F)F)cc2)c[nH]1)C(C)C [Example 2-16] | D (D represents pEC50>10 (EC50<0.1 nM)) | D (D represents pEC50>10 (EC50<0.1 nM)) | –
10 | COC(=O)N[C@H](C(=O)N1C[C@@H](C)C[C@H]1c1nc(-c2ccc(-c3ccc(NC(=O)N4CCN(C5CCN(C(=O)[C@H]6CC6(C)C)CC5)CC4)cc3OC(F)(F)F)cc2)c(Cl)[nH]1)C(C)C [Example 2-17] | D (D represents pEC50>10 (EC50<0.1 nM)) | D (D represents pEC50>10 (EC50<0.1 nM)) | –
11 | COC(=O)N[C@H](C(=O)N1C[C@@H](C)C[C@H]1c1nc(-c2ccc(-c3ccc(NC(=O)N4CCN(C5CCN(C(=O)C6CCC6)CC5)CC4)cc3OC(F)(F)F)cc2)c[nH]1)C(C)C [Example 2-19] | C (C represents pEC50 between and 9 and about 10, (EC50 between 1 nM and 0.1 nM)) | D (D represents pEC50>10 (EC50<0.1 nM)) | –
12 | [2H]C([2H])([2H])C1(C([2H])([2H])[2H])CC1C(=O)N1CCC(N2CCN(C(=O)Nc3ccc(-c4ccc(-c5c[nH]c([C@@H]6C[C@H](C)CN6C(=O)[C@@H](NC(=O)OC)C(C)C)n5)cc4)c(OC(F)(F)F)c3)CC2)CC1 (stereo partly shown) [Example 2-20] | D (D represents pEC50>10 (EC50<0.1 nM)) | D (D represents pEC50>10 (EC50<0.1 nM)) | –
13 | COC(=O)N[C@H](C(=O)N1C[C@@H](C)C[C@H]1c1nc(-c2ccc(-c3ccc(NC(=O)N4CCN(C5CCN(C(=O)OC(C)(C)C)CC5)CC4)cc3OC(F)(F)F)cc2)c[nH]1)C(C)C [Example 2-21] | D (D represents pEC50>10 (EC50<0.1 nM)) | D (D represents pEC50>10 (EC50<0.1 nM)) | –
14 | COC(=O)N[C@H](C(=O)N1CCC[C@H]1c1nc(-c2ccc(-c3ccc(NC(=O)N4CCC(N5CCN(C(=O)[C@H]6CC6(C)C)CC5)CC4)cc3)cc2)c[nH]1)C(C)C [Example 3-2] | B (B represents pEC50 between 8 and 9 (EC50 between 1 and 10 nM)) | D (D represents pEC50>10 (EC50<0.1 nM)) | –
15 | COC(=O)N[C@H](C(=O)N1CCC[C@H]1c1nc(-c2ccc(-c3ccc(NC(=O)N4CC5CCC(C4)N5C4CCN(C(=O)OC(C)(C)C)CC4)cc3OC(F)(F)F)cc2)c[nH]1)C(C)C [Example 8-2] | – | – | 0.1 to 1
16 | COC(=O)N[C@H](C(=O)N1[C@@H](C)CC[C@H]1c1nc(-c2ccc(-c3ccc(NC(=O)N4CCN(C5CCN(C(=O)C(C)(C)C)CC5)CC4)cc3OC(F)(F)F)cc2)c[nH]1)C(C)C [Example 8-3] | – | – | 0.1 to 1
17 | COC(=O)N[C@H](C(=O)N1[C@@H](C)CC[C@H]1c1nc(-c2ccc(-c3ccc(NC(=O)N4CCN(C5CCN(C(=O)C6CC6)CC5)CC4)cc3OC(F)(F)F)cc2)c[nH]1)C(C)C [Example 8-4] | – | – | 0.1 to 1
18 | COC(=O)N[C@H](C(=O)N1[C@@H](C)CC[C@H]1c1nc(-c2ccc(-c3ccc(NC(=O)N4CCN(C5CCN(C(=O)[C@H]6CC6(C)C)CC5)CC4)cc3OC(F)(F)F)cc2)c[nH]1)C(C)C [Example 8-5] | – | – | 0.1 to 1
19 | COC(=O)N[C@H](C(=O)N1C[C@@H](C)C[C@H]1c1nc(-c2ccc(-c3ccc(NC(=O)N4CCN(C5CCN(C(=O)C6CC6)CC5)CC4)cc3OC(F)(F)F)cc2)c(F)[nH]1)C(C)C [Example 9] | – | – | < 0.1
20 | COC(=O)N[C@H](C(=O)N1C[C@@H](C)C[C@H]1c1nc(-c2ccc(-c3ccc(NC(=O)N4CCN(C5CCN(C(=O)[C@H]6CC6(C)C)CC5)CC4)cc3OC(F)(F)F)cc2)c(F)[nH]1)C(C)C [Example 10] | D (D represents pEC50>10 (EC50<0.1 nM)) | – | –
21 | COC(=O)N[C@H](C(=O)N1C[C@@H](C)C[C@H]1c1nc(-c2ccc(-c3cc(Cl)c(NC(=O)N4CCC(N5CCN(C(=O)C(C)(C)C)C[C@@H]5C)CC4)cc3OC(F)(F)F)cc2)c[nH]1)C(C)C [Example 12, [(S)-1-((2S,4S)-2-{4-[5′-Chloro-4′-({4-[(S)-4-(2,2-dimethyl-propionyl)-2-methyl-piperazin-1-yl]-piperidine-1-carbonyl}-amino)-2′-trifluoromethoxy-biphenyl-4-yl]-1H-imidazol-2-yl}-4-methyl-pyrrolidine-1-carbonyl)-2-methyl-propyl]-carbamic acid methyl ester] | – | – | 0.1 to 1
22 | COC(=O)N[C@H](C(=O)N1C[C@@H](OC)C[C@H]1c1nc(-c2ccc(-c3ccc(NC(=O)N4CCC(N5CCN(C(=O)C6CCC6(C)C)CC5)CC4)cc3OC(F)(F)F)cc2)c[nH]1)C(C)C (stereo partly drawn) [Example 14, [(S)-1-((2S,4S)-2-{4-[4′-({4-[4-(2,2-Dimethyl-cyclobutanecarbonyl)-piperazin-1-yl]-piperidine-1-carbonyl}-amino)-2′-trifluoromethoxy-biphenyl-4-yl]-1H-imidazol-2-yl}-4-methoxy-pyrrolidine-1-carbonyl)-2-methyl-propyl]-carbamic acid methyl ester] | – | – | 0.1 to 1
23 | COC(=O)N[C@H](C(=O)N1C[C@@H](C)C[C@H]1c1nc2c(ccc3cc(-c4ccc(NC(=O)N5CCN(C6CCN(C(=O)C(C)(C)C)CC6)CC5)cc4OC(F)(F)F)ccc32)[nH]1)C(C)C [Example 15, [(S)-1-((2S,4S)-2-{7-[4-({4-[1-(2,2-Dimethyl-propionyl)-piperidin-4-yl]-piperazine-1-carbonyl}-amino)-2-trifluoromethoxy-phenyl]-3H-naphtho[1,2-d]imidazol-2-yl}-4-methyl-pyrrolidine-1-carbonyl)-2-methyl-propyl]-carbamic acid methyl ester] | – | – | < 0.1
